These results are taken from patent US20180057505A1, “BICYCLIC HETEROARYL COMPOUNDS USEFUL AS INHIBITORS OF THE PAR-2 SIGNALING PATHWAY” (VERTEX PHARMACEUTICALS INCORPORATED, priority 2015, published 2018).

Assay type in all cases: cell-based
Assay [1] has as its system Thrombin-stimulated Ca2+ response in HT-29 cells. The assay can be described thus: Ca FLIPR TETRA assay, ANTAGONIST mode, activator 1 U/mL Thrombin. The settings on record: HT-29 cells, activator 1 U/mL Thrombin. Summed up: (§1)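 Compounds are added to calcium 5-loaded HT-29 cells, read once for intrinsic Ca2+ activation, then incubated 30 min at room temperature. The same wells are then stimulated with a fixed final activator level and the Ca2+ response recorded on FLIPR Tetra.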

The test system of assay [2] is UTP-stimulated Ca2+ response in HT-29 cells. In words: Ca FLIPR TETRA assay, ANTAGONIST mode, activator 0.6 μM UTP. Particulars: HT-29 cells, activator 0.6 μM UTP. An outline of the steps:
as §1

The target of assay [3] is T1, PAR2 (HT-29 cells) (Homo sapiens, UniProt P55085).
T1 construct: host or cells: HT-29
T1 sequence (P55085 26-397): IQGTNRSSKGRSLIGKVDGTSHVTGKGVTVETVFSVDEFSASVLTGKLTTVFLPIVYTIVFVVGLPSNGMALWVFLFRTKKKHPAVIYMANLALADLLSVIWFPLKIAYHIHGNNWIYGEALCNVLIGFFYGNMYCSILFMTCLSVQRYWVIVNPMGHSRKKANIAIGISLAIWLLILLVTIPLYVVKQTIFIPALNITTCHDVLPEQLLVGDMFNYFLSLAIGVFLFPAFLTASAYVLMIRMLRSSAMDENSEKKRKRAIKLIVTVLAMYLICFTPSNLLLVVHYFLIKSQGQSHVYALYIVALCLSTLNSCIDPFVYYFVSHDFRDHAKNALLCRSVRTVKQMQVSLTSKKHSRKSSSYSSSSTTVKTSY
The assay can be described thus: Ca FLIPR TETRA assay, ANTAGONIST mode, activator 8 μM SLIGKV. Particulars: HT-29 cells; activator 8 μM SLIGKV; Method A: maximal concentration of antagonist 0.1, 1 or 2 μM. Summed up:
as §1

Assay [4] concerns the target T1, PAR2 (HT-29 cells). The assay can be described thus: Ca FLIPR TETRA assay, ANTAGONIST mode, activator 3.1 U/mL trypsin. The settings on record: HT-29 cells; activator 3.1 U/mL trypsin; Method A: maximal concentration of antagonist 0.1, 1 or 2 μM. Summed up: as §1

`CC(C)(C)c1cc(-c2ccc(Cl)c(F)c2)nc2cc(C(=O)N3CCN(c4ccc(F)c(C(=O)O)n4)CC3(C)C)oc12` [Example I-381]: the IC50 was greater than 2000 nM in assay [1] (Homo sapiens), greater than 2000 nM in assay [2] (Homo sapiens), 0.9 nM at PAR2 (HT-29 cells) [3] and 2.7 nM on PAR2 (HT-29 cells) [4].
Take `Cc1coc(N2CCN(C(=O)c3cc4nc(C5CCC(C)(C)CC5)cc(C(C)(C)C)c4o3)C(C)(C)C2)n1` [Example I-382]: the IC50 in assay [1] (Homo sapiens) was greater than 2000 nM; in assay [2] (Homo sapiens), greater than 2000 nM; on PAR2 (HT-29 cells) [3], 120 nM; on PAR2 (HT-29 cells) [4], 100 nM.
As to `Cc1cccc(C2CCN(C(=O)c3cc4nc(-c5ccc(Cl)cc5)cc(C(C)(C)C)c4o3)C(C)(C)C2)n1` (stereo not drawn) [Example I-383], the IC50 is greater than 2000 nM in assay [1], greater than 2000 nM in assay [2], 19 nM at PAR2 (HT-29 cells) [3] and 12 nM on PAR2 (HT-29 cells) [4].
As for `Cc1nc(C(=O)O)cnc1C1CCN(C(=O)c2cc3nc(C4CCC(C)(C)CC4)cc(C(C)(C)C)c3o2)C(C)(C)C1` (stereo not drawn) [Example I-384], the IC50 in assay [1] was greater than 2000 nM; in assay [2], greater than 2000 nM; on PAR2 (HT-29 cells) [3], 2.5 nM; at PAR2 (HT-29 cells) [4] it was 2.2 nM.
As for `Cc1nc(C)c(N2CCN(C(=O)c3cc4nc(-c5ccc(Cl)cc5)cc(C(C)(C)C)c4o3)C(C)(C)C2=O)o1` [Example I-386], the IC50 is greater than 2000 nM in assay [1] (Homo sapiens), greater than 2000 nM in assay [2] (Homo sapiens), 50 nM on PAR2 (HT-29 cells) [3] and 40 nM on PAR2 (HT-29 cells) [4].
As to `Cc1cncc(N2CCN(C(=O)c3cc4nc(-c5ccc(Cl)cc5)cc(C(C)(C)C)c4o3)C(C)(C)C2)n1` [Example I-387], the IC50 is greater than 2000 nM in assay [1] (Homo sapiens), greater than 2000 nM in assay [2] (Homo sapiens), 12 nM on PAR2 (HT-29 cells) [3] and 10 nM on PAR2 (HT-29 cells) [4].
Take `Cc1cnc(N2CCN(C(=O)c3cc4nc(-c5ccc(Cl)cc5)cc(C(C)(C)C)c4o3)C(C)(C)C2)nc1` [Example I-388]: the IC50 was greater than 2000 nM in assay [1] (Homo sapiens), greater than 2000 nM in assay [2] (Homo sapiens), 36 nM on PAR2 (HT-29 cells) [3] and 28.5 nM on PAR2 (HT-29 cells) [4].
Turning to `Cc1nccc(N2CCN(C(=O)c3cc4nc(-c5ccc(Cl)cc5)cc(C(C)(C)C)c4o3)C(C)(C)C2)n1` [Example I-389], the IC50 in assay [1] (Homo sapiens) was greater than 2000 nM; in assay [2] (Homo sapiens) it was greater than 2000 nM; on PAR2 (HT-29 cells) [3], 22 nM; on PAR2 (HT-29 cells) [4], 23 nM.
Consider `Cc1cc(N2CCN(C(=O)c3cc4nc(-c5ccc(Cl)cc5)cc(C(C)(C)C)c4o3)C(C)(C)C2)ncn1` [Example I-390], for which the IC50 in assay [1] (Homo sapiens) was greater than 2000 nM; in assay [2] (Homo sapiens) it was greater than 2000 nM; on PAR2 (HT-29 cells) [3], 19 nM; on PAR2 (HT-29 cells) [4] it was 12.5 nM.
As to `CC1(C)CCC(c2cc(C(C)(C)C)c3oc(C(=O)N4CCN(c5ncc(C(=O)O)cc5F)CC4(C)C)cc3n2)CC1` [Example I-391], the IC50 in assay [1] (Homo sapiens) was greater than 1010 nM; in assay [2] (Homo sapiens) it was 1010 nM; on PAR2 (HT-29 cells) [3], 0.4 nM; on PAR2 (HT-29 cells) [4], 0.4 nM.
In the case of `Cc1nc(C(=O)O)cnc1N1CCN(C(=O)c2cc3nc(-c4ccc(Cl)cc4)cc(C(C)(C)C)c3o2)C(C)(C)C1` [Example I-392], the IC50 was greater than 2000 nM in assay [1] (Homo sapiens), greater than 2000 nM in assay [2] (Homo sapiens), 3.8 nM on PAR2 (HT-29 cells) [3] and 2.8 nM on PAR2 (HT-29 cells) [4].
For the compound `CC(C)(C)c1cc(-c2ccc(Cl)cc2)nc2cc(C(=O)N3CCN(c4ncc(C(=O)O)cc4F)CC3(C)C)oc12` [Example I-393], the IC50 in assay [1] (Homo sapiens) is greater than 1010 nM; in assay [2] (Homo sapiens) it was 860 nM; at PAR2 (HT-29 cells) [3] it was 0.4 nM; at PAR2 (HT-29 cells) [4] it was 0.3 nM.
For `Cc1cccnc1N1CCN(C(=O)c2cc3nc(-c4ccc(Cl)cc4)cc(C(C)(C)C)c3o2)C(C)(C)C1` [Example I-394] the same measures were greater than 2000 nM, greater than 2000 nM, 58 nM and 55 nM.
Consider `Cc1ccc(N2CCN(C(=O)c3cc4nc(-c5ccc(Cl)cc5)cc(C(C)(C)C)c4o3)C(C)(C)C2)nc1` [Example I-395], for which the IC50 in assay [1] (Homo sapiens) was greater than 2000 nM; in assay [2] (Homo sapiens), greater than 2000 nM; on PAR2 (HT-29 cells) [3] it was 56 nM; at PAR2 (HT-29 cells) [4], 40.5 nM.
For `CC(C)(C)c1cc(-c2ccc(Cl)c(F)c2)nc2cc(C(=O)N3CCN(c4ncc(C(=O)O)cc4F)CC3(C)C)oc12` [Example I-396], the concentration for half-maximal inhibition (IC50) in assay [1] (Homo sapiens) stood at 1010 nM; in assay [2] (Homo sapiens), 1060 nM; on PAR2 (HT-29 cells) [3], 0.3 nM; on PAR2 (HT-29 cells) [4] it was 0.3 nM.

Broadly, the IC50 is the concentration needed to halve the response being measured.
